Measured values taken from patent US9669035B2, “Combinations comprising PDE 2 inhibitors such as 1-aryl-4-methyl-[1,2,4]triazolo-[4,3-A]]quinoxaline compounds and PDE 10 inhibitors for use in the treatment of neurological of metabolic disorders” (Janssen Pharmaceutica NV, priority 2012, dated 2017).
Where two headings read alike, the source gives them in different places.

Tests used:
[1] = target: Rat recombinant PDE10A (rPDE10A2) (Rattus norvegicus (Rat), UniProt Q9QYJ6); assay: In vitro assay PDE10A (SPA, 3H-cAMP); type: biochemical
[2] = test system: Apomorphine-induced agitation in rats; assay: Inhibition of apomorphine-induced agitation in rats (APO)
[3] = test system: d-Amphetamine-induced hyperlocomotion in rats; assay: d-Amphetamine-induced hyperlocomotion in rats: potentiation of the effect of MP-10; type: in vivo, rat; settings: SC, Time -60, dose 10; d-amphetamine (1.25 mg/kg, s.c.) + MP-10 (2.5 mg/kg, s.c.)
[4] = test system: Apomorphine-induced agitation in rats; assay: Inhibition of apomorphine-induced agitation in rats in combination with MP-10; type: in vivo, rat; settings: SC, Time 60, dose 10; MP-10 (0.63 mg/kg) + apomorphine (1.0 mg/kg) i.v.
Experimental: Inhibition of Apomorphine-induced Agitation in Rats in combination with MP-10 but the animals were simultaneously challenged with MP-10 (0.63 mg/kg) in addition to apomorphine (1.0 mg/kg) via one injection (2 ml/kg, i.v.), at a fixed time interval (standard 1 h) after s.c. or p.o. dosing of test compound or solvent. Twelve times, every 5 min, the intensity of agitation was scored 0 to 3.

[5] = test system: d-Amphetamine-induced hyperlocomotion in rats; assay: Inhibition of d-amphetamine-induced hyperlocomotion in rats in combination with Compound A and Compound B (FIGS. 9, 10); type: in vivo; settings: Rattus norvegicus, sc
Experimental: (§1) Shown are individual values (open and closed circles for PDE2-i at 0 and 10 mg/kg, respectively) and median values (horizontal lines) for distance traveled per dose group. The dotted horizontal lines represent the criteria adopted for drug-induced effects (<5500 and <1100 cm). In FIG. 9: * p<0.05, ** p<0.01, *** p<0.001 (Bonferroni posttests 0 vs 10 mg/kg).
The dotted horizontal lines represent the critical levels for drug-induced effects (<5500 cm and <1100 cm).
as §1, with “[…] This is also reflected in the listed ED50 values.” for “In FIG. 9: * p<0.05, ** p<0.01, *** p<0.001 (Bonferroni posttests 0 vs 10 mg/kg).”

[6] = test system: Apomorphine-induced agitation in rats; assay: Inhibition of apomorphine-induced agitation in rats in combination with Compound A and Compound B (FIGS. 4, 5); type: in vivo; settings: Rattus norvegicus, sc
Experimental: Shown are individual scores (open and closed circles for PDE2-i at 0 and 10 mg/kg, respectively) and median scores (horizontal lines) for agitation per dose group. In FIG. 4: * p<0.05, ** p<0.01, *** p<0.001 (Bonferroni posttests 0 vs 10 mg/kg).
In FIG. 5: * p<0.05 (Dunnett's Multiple Comparison Test vs. 0 mg/kg)
Shown are individual scores (open and closed circles for PDE2-i at 0 and 10 mg/kg, respectively) and median scores (horizontal lines) for agitation per dose group. […] This is also reflected in the listed ED50 values.

[7] = SC, lowest dose at which >=67% tested animals respond
[8] = read-out: ED50 (95% confidence limits) for reducing distance traveled to <1100 cm, PDE10-i s.c., -1 h, co-treatment with B-1a 0 mg/kg
[9] = read-out: ED50 (95% confidence limits) for reducing distance traveled to <1100 cm, PDE10-i s.c., -1 h, co-treatment with B-1a 10 mg/kg s.c.
[10] = read-out: ED50 (95% confidence limits) for reducing distance traveled to <5500 cm, PDE10-i s.c., -1 h, co-treatment with B-1a 0 mg/kg
[11] = read-out: ED50 (95% confidence limits) for reducing distance traveled to <5500 cm, PDE10-i s.c., -1 h, co-treatment with B-1a 10 mg/kg s.c.
[12] = read-out: ED50 (95% confidence limits) for reducing agitation score to <5, PDE10-i s.c., -1 h, co-treatment with B-1a 0 mg/kg
[13] = read-out: ED50 (95% confidence limits) for reducing agitation score to <5, PDE10-i s.c., -1 h, co-treatment with B-1a 10 mg/kg s.c.
[14] = read-out: ED50 (95% confidence limits) for reducing agitation score to <10, PDE10-i s.c., -1 h, co-treatment with B-1a 0 mg/kg
[15] = read-out: ED50 (95% confidence limits) for reducing agitation score to <10, PDE10-i s.c., -1 h, co-treatment with B-1a 10 mg/kg s.c.
[16] = read-out: ED50 (95% confidence limits) for reducing agitation score to <21, PDE10-i s.c., -1 h, co-treatment with B-1a 0 mg/kg
[17] = read-out: ED50 (95% confidence limits) for reducing agitation score to <21, PDE10-i s.c., -1 h, co-treatment with B-1a 10 mg/kg s.c.

Sequence of Rat recombinant PDE10A (rPDE10A2) (Q9QYJ6 whole entry): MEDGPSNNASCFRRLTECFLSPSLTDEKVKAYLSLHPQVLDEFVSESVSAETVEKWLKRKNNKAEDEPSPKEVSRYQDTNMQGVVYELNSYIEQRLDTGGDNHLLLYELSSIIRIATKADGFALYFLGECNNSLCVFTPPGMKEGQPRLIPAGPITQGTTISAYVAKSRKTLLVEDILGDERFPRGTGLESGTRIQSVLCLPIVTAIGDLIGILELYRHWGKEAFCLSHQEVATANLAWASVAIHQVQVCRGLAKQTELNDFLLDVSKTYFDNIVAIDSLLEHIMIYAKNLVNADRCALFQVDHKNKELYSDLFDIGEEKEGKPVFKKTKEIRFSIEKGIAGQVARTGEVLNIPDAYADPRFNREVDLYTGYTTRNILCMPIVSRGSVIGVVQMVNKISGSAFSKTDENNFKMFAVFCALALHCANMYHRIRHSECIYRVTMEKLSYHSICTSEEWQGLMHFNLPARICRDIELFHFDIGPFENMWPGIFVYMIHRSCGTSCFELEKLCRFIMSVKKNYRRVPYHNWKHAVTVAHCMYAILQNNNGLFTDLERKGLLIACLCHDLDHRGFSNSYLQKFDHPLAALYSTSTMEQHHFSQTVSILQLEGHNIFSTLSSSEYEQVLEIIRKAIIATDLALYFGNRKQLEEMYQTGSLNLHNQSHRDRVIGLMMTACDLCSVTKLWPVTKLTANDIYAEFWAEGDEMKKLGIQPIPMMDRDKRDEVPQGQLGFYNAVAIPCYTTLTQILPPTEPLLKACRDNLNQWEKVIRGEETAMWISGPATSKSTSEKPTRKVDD

Cc1nc2ccc(CN3CCOCC3)cc2n2c(-c3cc(F)ccc3Cl)nnc12 [Compound B-9]
PIC50 PDE10 ([1]; -log IC50 expressed in mol/L): 7.07 | Dose at max effect ([2]; SC): 10 | Max effect (lowest median cumulative agitation score) ([2]; SC, at the dose at max effect): 9 | LAD (lowest active dose) ([2]; rat, in vivo): 2.5

Cc1nc2ccc(CN(C)C)cc2n2c(-c3ccccc3Cl)nnc12 [Compound B-13]
PIC50 PDE10 ([1]; -log IC50 expressed in mol/L): 6.97 | Dose at max effect ([2]; SC): 10 | Max effect (lowest median cumulative agitation score) ([2]; SC, at the dose at max effect): 20.5 | LAD (lowest active dose) ([2]; rat, in vivo): >10

COc1ccc(Cl)c(-c2nnc3c(C)nc4ccc(CN5CCOCC5)cc4n23)c1 [Compound B-10]
PIC50 PDE10 ([1]; -log IC50 expressed in mol/L): 6.98 | Dose at Max Effect ([2]; PO): 10 | Max effect (lowest median cumulative agitation score) ([2]; PO, at the dose of column Dose at Max Effect): 21 | LAD (lowest active dose) ([2]; rat, in vivo): >10

CCOc1ccc(Cl)c(-c2nnc3c(C)nc4ccc(CN5CCOCC5)cc4n23)c1 [Compound B-7]
PIC50 PDE10 ([1]; -log IC50 expressed in mol/L): 6.58 | Dose at max effect ([2]; SC): 10 | Max effect (lowest median cumulative agitation score) ([2]; SC, at the dose at max effect): 24 | LAD (lowest active dose) [2, 7]: >10

CCOc1ccc(Cl)c(-c2nnc3c(C)nc4ccc(CN(C)C)cc4n23)c1 [Compound B-18]
Distance Total <2500 cm Effect [3]: 3369 cm | PIC50 PDE10 [1]: 6.5 | Inh. of agitation < 10 Effect (cumulative agitation score) [4]: 17 | Dose at max effect ([2]; SC): 10 | Max effect (lowest median cumulative agitation score) ([2]; SC, at the dose at max effect): 22 | LAD (lowest active dose) ([2]; rat, in vivo): >10

Cc1nc2ccc(CN(C)C)cc2n2c(-c3cncc(OCC4CC4)c3)nnc12 [Compound B-30]
PIC50 PDE10 [1]: <5

CCCCOc1ccc(Cl)c(-c2nnc3c(C)nc4ccc(CN5CCOCC5)cc4n23)c1.Cl [Compound B-2, 1-(5-Butoxy-2-chlorophenyl)-4-methyl-8-(morpholin-4-ylmethyl) [1,2,4]triazolo-[4,3-a]quinoxaline hydrochloride]
PIC50 PDE10 ([1]; -log IC50 expressed in mol/L): 5.79

CCCCOc1ccc(Cl)c(-c2nnc3c(C)nc4ccc(CNC(C)C)cc4n23)c1 [Compound B-20]
PIC50 PDE10 [1]: 5.38

CCNCc1ccc2nc(C)c3nnc(-c4ccccc4Cl)n3c2c1 [Compound B-4, N-{[1-(2-Chlorophenyl)-4-methyl[1,2,4]triazolo[4,3-a]quinoxalin-8-yl]methyl}-ethanamine]
PIC50 PDE10 ([1]; -log IC50 expressed in mol/L): 6.8 | Dose at max effect ([2]; SC): 10 | Max effect (lowest median cumulative agitation score) ([2]; SC, at the dose at max effect): 21 | LAD (lowest active dose) [2, 7]: >10

COCCc1ccc(-c2c(C)nc3c(N4CCOCC4)ccnn23)cn1 [Compound A]
ED50 [5, 8]: > 40 mg/kg | ED50 [5, 9]: 6.2 mg/kg | ED50 [5, 10]: 0.89 mg/kg | ED50 [5, 11]: 0.67 mg/kg | ED50 [6, 12]: ≥ 40 mg/kg | ED50 [6, 13]: 12.4 mg/kg | ED50 [6, 14]: 16.3 mg/kg | ED50 [6, 15]: 6.2 mg/kg | ED50 [6, 16]: 2.71 mg/kg | ED50 [6, 17]: 3.1 mg/kg

CCCCOc1cc(-c2nnc3c(C)nc4ccc(CN5CCOCC5)cc4n23)cnc1Cl [Compound B-29]
PIC50 PDE10 ([1]; -log IC50 expressed in mol/L): <5

CCCOc1ccc(Cl)c(-c2nnc3c(C)nc4ccc(CN(C)C)cc4n23)c1 [Compound B-15]
PIC50 PDE10 [1]: 5.83

Cc1nc2ccc(CNC(C)C)cc2n2c(-c3cncc(OCC4CC4)c3)nnc12 [Compound B-31]
PIC50 PDE10 [1]: 5.84

CCCOc1cncc(-c2nnc3c(C)nc4ccc(CN5CCOCC5)cc4n23)c1 [Compound B-16]
PIC50 PDE10 ([1]; -log IC50 expressed in mol/L): 5.21

Cc1nc2c(N3CCOCC3)nccn2c1-c1ccc(C2CCOCC2)nc1 [Compound B]
ED50 [5, 8]: > 40 mg/kg | ED50 [5, 9]: 16.3 mg/kg | ED50 [5, 10]: 3.1 mg/kg | ED50 [5, 11]: 2.04 mg/kg | ED50 [6, 12]: ≥ 40 mg/kg | ED50 [6, 13]: 10.8 mg/kg | ED50 [6, 14]: 32 mg/kg | ED50 [6, 15]: 6.2 mg/kg | ED50 [6, 16]: 2.71 mg/kg | ED50 [6, 17]: 2.36 mg/kg
